pIC50: −log10 of the molar value.
These molecules were tested on Plasmodium falciparum (assay: Antimalarial activity against chloroquine-resistant Plasmodium falciparum W2 after 48 hrs by flow cytometry). Conditions: W2, 48 h.
Type: functional, organism-based
With `O=C1C(=O)N(CCn2cc(COc3ccc(/C=N/Nc4ccnc5cc(Cl)ccc45)cc3)nn2)c2ccc(Cl)cc21` the pIC50 was 6.58. With `O=C1C(O)c2cc(F)ccc2N1CCCCn1cc(COc2ccc(CNNc3ccnc4cc(Cl)ccc34)cc2)nn1` (configuration not stated) the pIC50 was 6.79. For `O=Cc1ccc(OCc2cn(CCN3C(=O)C(=O)c4cc(Cl)ccc43)nn2)cc1`, the pIC50 was < 5.00. In the case of `O=C1C(O)c2cc(Cl)ccc2N1CCCCn1cc(COc2ccc(CNNc3ccnc4cc(Cl)ccc34)cc2)nn1` (configuration not stated), the pIC50 was 6.77. `O=C1C(=O)N(CCCn2cc(COc3ccc(/C=N/Nc4ccnc5cc(Cl)ccc45)cc3)nn2)c2ccc(F)cc21` was tested, and the pIC50 was 6.54. For `O=C1C(O)c2ccccc2N1CCn1cc(COc2ccc(CNNc3ccnc4cc(Cl)ccc34)cc2)nn1` (configuration not stated), the pIC50 was 6.89. `Cc1ccc2c(c1)C(O)C(=O)N2CCCn1cc(COc2ccc(CNNc3ccnc4cc(Cl)ccc34)cc2)nn1` (configuration not stated) showed a pIC50 of 6.29. With `O=Cc1ccc(OCc2cn(CCN3C(=O)C(=O)c4ccccc43)nn2)cc1` the pIC50 was < 5.00. Work on `Cc1ccc2c(c1)C(=O)C(=O)N2CCn1cc(COc2ccc(/C=N/Nc3ccnc4cc(Cl)ccc34)cc2)nn1` yielded a pIC50 of 6.73. For `O=C1C(=O)N(CCCn2cc(COc3ccc(/C=N/Nc4ccnc5cc(Cl)ccc45)cc3)nn2)c2ccccc21`, the pIC50 was 6.78. `Cc1ccc2c(c1)C(=O)C(=O)N2CCn1cc(COc2ccc(C=O)cc2)nn1` was tested, and the pIC50 was < 5.00. `O=C1C(=O)N(CCCCn2cc(COc3ccc(/C=N/Nc4ccnc5cc(Cl)ccc45)cc3)nn2)c2ccccc21` was tested, and the pIC50 was 6.92. `O=C1C(O)c2ccccc2N1CCCCn1cc(COc2ccc(CNNc3ccnc4cc(Cl)ccc34)cc2)nn1` (configuration not stated) gave a pIC50 of 7.16. In the case of `Cc1ccc2c(c1)C(=O)C(=O)N2CCCn1cc(COc2ccc(/C=N/Nc3ccnc4cc(Cl)ccc34)cc2)nn1`, the pIC50 was 6.79. In the case of `O=Cc1ccc(OCc2cn(CCCN3C(=O)C(=O)c4cc(Cl)ccc43)nn2)cc1`, the pIC50 was < 5.00. For `Cc1ccc2c(c1)C(=O)C(=O)N2CCCn1cc(COc2ccc(C=O)cc2)nn1`, the pIC50 was < 5.00. In the case of `O=C1C(=O)N(CCCCn2cc(COc3ccc(/C=N/Nc4ccnc5cc(Cl)ccc45)cc3)nn2)c2ccc(Cl)cc21`, the pIC50 was 6.85. `O=Cc1ccc(OCc2cn(CCCN3C(=O)C(=O)c4cc(F)ccc43)nn2)cc1` was tested, and the pIC50 was < 5.00. `O=C1C(O)c2cc(Cl)ccc2N1CCn1cc(COc2ccc(CNNc3ccnc4cc(Cl)ccc34)cc2)nn1` (configuration not stated) was tested, and the pIC50 was 6.74. Molecule `O=C1C(=O)N(CCCCn2cc(COc3ccc(/C=N/Nc4ccnc5cc(Cl)ccc45)cc3)nn2)c2ccc(F)cc21` has a pIC50 of 6.87. Work on `Cc1ccc2c(c1)C(O)C(=O)N2CCn1cc(COc2ccc(CNNc3ccnc4cc(Cl)ccc34)cc2)nn1` (configuration not stated) yielded a pIC50 of 6.49. Molecule `O=C1C(O)c2ccccc2N1CCCn1cc(COc2ccc(CNNc3ccnc4cc(Cl)ccc34)cc2)nn1` (configuration not stated) has a pIC50 of 6.47. For `O=Cc1ccc(OCc2cn(CCCCN3C(=O)C(=O)c4cc(Cl)ccc43)nn2)cc1`, the pIC50 was < 5.00. For `O=Cc1ccc(OCc2cn(CCCCN3C(=O)C(=O)c4ccccc43)nn2)cc1`, the pIC50 was < 5.00. `O=Cc1ccc(OCc2cn(CCN3C(=O)C(=O)c4cc(F)ccc43)nn2)cc1` was tested, and the pIC50 was < 5.00. For `O=C1C(=O)N(CCn2cc(COc3ccc(/C=N/Nc4ccnc5cc(Cl)ccc45)cc3)nn2)c2ccccc21`, the pIC50 was 6.93. `O=Cc1ccc(OCc2cn(CCCN3C(=O)C(=O)c4ccccc43)nn2)cc1` was tested, and the pIC50 was < 5.00. `C[C@@H]1CC[C@H]2[C@@H](C)C(=O)O[C@@H]3O[C@@]4(C)CC[C@@H]1[C@]32OO4` [ARTEMISININ] gave a pIC50 of 8.15. For `Cc1ccc2c(c1)C(=O)C(=O)N2CCCCn1cc(COc2ccc(C=O)cc2)nn1`, the pIC50 was 5.19. Molecule `O=C1C(O)c2cc(Cl)ccc2N1CCCn1cc(COc2ccc(CNNc3ccnc4cc(Cl)ccc34)cc2)nn1` (configuration not stated) has a pIC50 of 6.46. Work on `O=C1C(=O)N(CCCn2cc(COc3ccc(/C=N/Nc4ccnc5cc(Cl)ccc45)cc3)nn2)c2ccc(Cl)cc21` yielded a pIC50 of 6.46. Molecule `O=C1C(O)c2cc(F)ccc2N1CCn1cc(COc2ccc(CNNc3ccnc4cc(Cl)ccc34)cc2)nn1` (configuration not stated) has a pIC50 of 6.95. `O=C1C(=O)N(CCn2cc(COc3ccc(/C=N/Nc4ccnc5cc(Cl)ccc45)cc3)nn2)c2ccc(F)cc21` showed a pIC50 of 6.72. `Cc1ccc2c(c1)C(O)C(=O)N2CCCCn1cc(COc2ccc(CNNc3ccnc4cc(Cl)ccc34)cc2)nn1` (configuration not stated) gave a pIC50 of 6.49. `Cc1ccc2c(c1)C(=O)C(=O)N2CCCCn1cc(COc2ccc(/C=N/Nc3ccnc4cc(Cl)ccc34)cc2)nn1` gave a pIC50 of 6.69. In the case of `O=C1C(O)c2cc(F)ccc2N1CCCn1cc(COc2ccc(CNNc3ccnc4cc(Cl)ccc34)cc2)nn1` (configuration not stated), the pIC50 was 6.69. For `O=Cc1ccc(OCc2cn(CCCCN3C(=O)C(=O)c4cc(F)ccc43)nn2)cc1`, the pIC50 was < 5.00.

— ChEMBL document CHEMBL3112435, “1H-1,2,3-Triazole-tethered isatin-7-chloroquinoline and 3-hydroxy-indole-7-chloroquinoline conjugates: synthesis and antimalarial evaluation” (Bioorg Med Chem Lett, 2014)
